What was measured:
[1] = system: supercoiled plasmid (pcDNA) with or without T4 GP41 DNA helicase; assay: DNA binding test involving helicase (gel electrophoresis); format: biochemical; conditions: Test 1 vs Test 4; 0.1 mmol/L, 1 hour, 37° C.
From the text: In this experiment, the effect of a helicase on carboplatin 4.0 was verified by a DNA binding test involved by the helicase, including: using the supercoiled and linear plasmid DNA (Hr. pcDNA, which can be extracted in a conventional manner) as a template, changing the DNA conformation through reactions by combining with different platinum-based anticancer drugs, and then distinguishing different platinum drugs by differences in gel electrophoretograms. […]
The following samples (test numbers 1-5 and M) were analyzed under the above experimental conditions, and the addition of pcDNA, drugs, and helicases in each sample was shown as follows: • Test 1: pcDNA+Carboplatin+T4 • Test 2: pcDNA+Carboplatin 4.0+T4 • Test 3: pcDNA+Carboplatin 4.0 • Test 4: pcDNA+Carboplatin • Test 5: pcDNA Test M: Marker (Reference Standard)

[2] = Cytotoxicity experiments for antiviral application; format: cell-based
linear DNA = assay: Binding assay with a linear DNA; conditions: in a certain period of time
supercoiled plasmid DNA = assay: Mixing with supercoiled plasmid DNA, electrophoresis; format: binding; conditions: electrophoresis after a period of time

In the case of `N.N.O=C([O-])C1(C(=O)[O-])CCC1.[Pt+2]` [carboplatin], the “effect of the helicase on DNA binding of the drug” value [1] is reported as “no obvious effect”, the “cytotoxicity evaluation for application in an antiviral aspect” value [2] is reported as “hinders its application in the antiviral aspect” and the “cross-linking with linear DNA” value (linear DNA) is reported as “quickly forms a cross-linked adduct with DNA”. The “crosslinking with supercoiled plasmid DNA” value (supercoiled plasmid DNA) was “crosslinks with the supercoiled plasmid DNA to form a adduct”.

Reference: US12564569B2, “Carboplatin complex and pharmaceutical preparation thereof” (ADVANCHL BIO[…] CENTER (SHANGHAI), priority 2019, dated 2026)
